The values below are quoted from earlier work in patent US6353019B1, “Macrocyclic lactones, compositions, and methods of use” (United States of America as represented by the Department …, priority 1997, dated 2002).

The conditions of this data set: reported by Suzumure et al., Tetrahedron Lett. 1997; cited from earlier work.

As to lobatamide A, the antifungal activity result is “weak antifungal activity”.
